In publication PMC6941124 (International Journal of Molecular Sciences, 2019):
Substitutions are numbered along the chain they refer to.

Experiments:
Format in all cases: biochemical
Conditions in all cases: inhibitor at IC50 concentration previously determined for CK1δ WT; DMSO control = 100%; adjusted to WT = 50%; mean ± SD
[1] = molecular target: T1, CK1δ R168H (Homo sapiens, UniProt P48730, R168H); experiment: in vitro kinase assay, CK1δ mutant R168H
T1 sequence (P48730 1-415 R168H): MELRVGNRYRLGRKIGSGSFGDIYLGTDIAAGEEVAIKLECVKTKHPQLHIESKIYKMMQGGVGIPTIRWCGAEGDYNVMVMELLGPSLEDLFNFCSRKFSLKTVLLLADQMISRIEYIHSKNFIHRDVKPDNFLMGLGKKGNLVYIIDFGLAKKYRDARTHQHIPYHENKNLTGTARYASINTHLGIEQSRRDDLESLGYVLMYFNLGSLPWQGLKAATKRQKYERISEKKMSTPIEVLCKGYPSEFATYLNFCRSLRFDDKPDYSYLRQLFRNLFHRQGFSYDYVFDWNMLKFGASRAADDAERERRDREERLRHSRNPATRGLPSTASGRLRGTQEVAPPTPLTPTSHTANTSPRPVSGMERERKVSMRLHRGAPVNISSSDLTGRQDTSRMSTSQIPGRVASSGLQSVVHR
Procedure: (§1) Overexpression and purification of GST-CK1δ fusion proteins, either wild type or mutant, were performed as described previously.
(§2) Each kinase assay reaction was performed in kinase buffer (25 mM Tris-HCl (pH 7.5), 10 μM ATP, 10 mM MgCl2, 100 μM EDTA) in presence of purified GST-CK1δ kinase as source of enzyme (either wild type or mutant), an assay-specific substrate (α-casein, GST-p53^1−64, or GST-β-catenin^1−181), and radiolabeled ATP (2 μCi [γ-^32P]-ATP). For performing Michaelis–Menten analysis increasing substrate concentrations were used (α-casein: 0.39−25 μM; GST-p53^1−64: 0.09−1.87 μM; GST-β-catenin^1−181: 0.07−1.32 μM). For biological evaluation of small molecule inhibitors (SMIs), each inhibitor compound was either tested at 10 μM concentration for initial screening or by using a dilution series (0.005−10 µM) for determination of IC50 values. DMSO was used as control. Reactions were incubated for 30 min at 30 °C and reactions were stopped using 5x SDS-loading buffer (250 mM Tris-HCl [pH 6.8], 25% (v/v) β-mercaptoethanol (MSH), 50% (v/v) glycerol, 10% (w/v) SDS, 0.5% (w/v) bromphenol blue). Subsequently, samples were separated by SDS-PAGE using 12.5% acrylamide gels, stained with Coomassie, and phosphorylated substrates were visualized on X-ray film. Incorporation of radiolabeled phosphate was quantified by scintillation counting of Coomassie-stained substrate bands. Defined dilutions of the reaction master mix were counted as well in order to convert results obtained as counts per minute (CPM) to units of transferred phosphate in pmol/min. Michaelis–Menten analysis was performed using GraphPad Prism 6 (GraphPad Software, San Diego, CA, USA).

[2] = molecular target: T2, CK1δ R127L (Homo sapiens, UniProt P48730, R127L); experiment: in vitro kinase assay, CK1δ mutant R127L
T2 sequence (P48730 1-415 R127L): T1 sequence (P48730 1-415 R168H) with R127L, H168R
Procedure: as §1, §2

[3] = molecular target: T3, CK1δ R127Q (Homo sapiens, UniProt P48730, R127Q); experiment: in vitro kinase assay, CK1δ mutant R127Q
T3 sequence (P48730 1-415 R127Q): T1 sequence (P48730 1-415 R168H) with R127Q, H168R
Procedure: as §1, §2

[4] = molecular target: T4, CK1δ R115H (Homo sapiens, UniProt P48730, R115H); experiment: in vitro kinase assay, CK1δ mutant R115H
T4 sequence (P48730 1-415 R115H): T1 sequence (P48730 1-415 R168H) with R115H, H168R
Procedure: as §1, §2

[5] = molecular target: T5, CK1δ R299Q (Homo sapiens, UniProt P48730, R299Q); experiment: in vitro kinase assay, CK1δ mutant R299Q
T5 sequence (P48730 1-415 R299Q): T1 sequence (P48730 1-415 R168H) with H168R, R299Q
Procedure: as §1, §2

Row | Residual activity of CK1δ R168H [1] | Residual activity of CK1δ R127L [2] | Residual activity of CK1δ R127Q [3] | Residual activity of CK1δ R115H [4] | Residual activity of CK1δ R299Q [5] | SMILES
1 | 30 ± 16% | 50 ± 11% | 24 ± 8% | 36 ± 10% | 64 ± 22% | O=C(Nc1nc2ccc(C(F)(F)F)cc2[nH]1)c1csc(NC(=O)c2ccccc2OC(F)(F)F)n1 [Bischof-5]
2 | 50 ± 9% | 42 ± 9% | 37 ± 5% | 71 ± 34% | 36 ± 20% | Cc1ccc2nc(NC(=O)CSc3nc4c(c(=O)n3-c3ccccc3)SCC4)sc2c1 [IWP-2]
3 | 61 ± 19% | 48 ± 10% | 36 ± 11% | 46 ± 5% | 91 ± 60% | COc1ccccc1-n1c(SCC(=O)Nc2nc3ccc(C)cc3s2)nc2c(c1=O)SCC2 [IWP-4]
